The subject of experiment [1] is AeaABC-TMOF receptor. Nature of the experiment: Transport of AeaTMOF-FITC into E. coli cells expressing AeaABC-TMOF receptor in the presence of inhibitors. The following applies: NaAzide 100 μM, NaArsenate 20 mM, AeaTMOF-FITC 0.4 μM, 2 h, 37 °C; for effect on transport of AeaTMOF-FITC into E. coli cells (in words): Valinomycin 7 μM, DNP 27 μM; for inhibition of transport of AeaTMOF-FITC into E. coli cells: 5 × 10^5 cells, M9 medium, versus control cells, mean of 3. It counts as cell-based, Aedes aegypti. The method, then: To find out whether the transport into E. coli cells expressing the TMOF receptor is proton driven or depends on ATP hydrolysis, E. coli cells (5 × 10^5 cell) expressing the TMOF receptor were incubated in M9 medium (100 μL) with valinomysin (7 μM), DNP (27 μM), NaAzide (100 μM) and NaArsenate (20 mM) in the presence of AeaTMOF-FITC (0.4 μM) for 2 h at 37 °C. Control was run without the inhibitors. After incubation, the cells were washed 3× by centrifugation and the fluorescence was read after subtraction the initial background fluorescence of the medium and inhibitors without the AeaTMOF-FITC. The incubations were repeated 3 independent times and the results are expressed as means of 3 determinations ±SEM.

The subject of experiment [2] is E. coli SbmA− cells. Nature of the experiment: Nonspecific binding of TMOF-FITC to E. coli SbmA− cells with empty pTAC-MAT-2 plasmid. How it is done:
(§1) Mid-log phase bacteria harboring TMOF-receptor were harvested, diluted and 0.5 μL (8 × 10^8 cells) were incubated in M9 medium (100 μL) pH 7.2 at 37 °C for 2 h in a shaker incubator in Eppendorf tubes with different concentrations of TMOF-FITC (0–0.4 μM) (specific activity = 25,396 fluorescence units/pmol) in the presence of TMOF (1 μmol) to reduce nonspecific binding of TMOF-FITC to the bacterial surface. After incubation, the cells were centrifuged at 14,000 rpm for 5 min at 4 °C, resuspended in PBS pH 7.2 (100 μL), vortexed, centrifuged, and the washing was repeated three times. After the last wash, the cells OD600nm and fluorescence were read in GloMax multidetector system using a blue filter (excitation at 490 nm and emission at 510–570 nm). The amount of TMOF-FITC that bound the TMOF-receptor was determined from a linear calibration curve after plotting different concentrations of TMOF-FITC against fluorescence units. […] The results are expressed as pmol/OD600 so the binding to the receptor is per equal number of E. coli cells. The kinetics of TMOF-FITC binding to its receptor was followed at different concentrations of TMOF-FITC using 5 repetitions per concentration, the data was then fitted by nonlinear regression using GraphPad Prism and the KD, Bmax and the affinity constant Kassoc determined. […]

In experiment [3] the test system is AeaABC-TMOF receptor. Nature of the experiment: Fluorescence microscopy of TMOF-FITC import into E. coli cells expressing AeaABC-TMOF receptor. It counts as cell-based, Aedes aegypti. The settings on record: for fluorescence of cells / import (in words): overnight incubation, 10^8 cells expressing receptor, 37 °C, washed 3×. How it is done:
Binding of TMOF-FITC to the AeaABC-TMOF receptor and its transport into the recombinant E. coli cells were observed using Leica DM6B microscope with Leica DFC 7000 T camera and 63× magnification using oil immersion lens. […] After incubation, the cells were washed 3× in PBS pH 7.2 (as in Section 2.6) and aliquots (10 μL) were spread on a glass slide then covered with a cover slip and a drop of oil was applied to the top of the cover slip, and the cells observed by fluorescence microscopy. Cells without a TMOF-receptor containing an empty plasmid were used as control.

Experiment [4] has as its system E. coli SbmA− cells. In words: Fluorescence microscopy of E. coli cells with empty pTAC-MAT-2 plasmid incubated with TMOF-FITC. It counts as cell-based. The following applies: overnight incubation, 10^8 cells with empty plasmid, 37 °C, washed 3×. The method, then: Binding of TMOF-FITC to the AeaABC-TMOF receptor and its transport into the recombinant E. coli cells were observed using Leica DM6B microscope with Leica DFC 7000 T camera and 63× magnification using oil immersion lens. Mid-log E. coli cells (10^8 cells) expressing AeaABC-TMOF-receptor were incubated with TMOF-FITC (see Section 2.6) in M9 medium (100 μL) overnight at 37 °C. After incubation, the cells were washed 3× in PBS pH 7.2 (as in Section 2.6) and aliquots (10 μL) were spread on a glass slide then covered with a cover slip and a drop of oil was applied to the top of the cover slip, and the cells observed by fluorescence microscopy. Cells without a TMOF-receptor containing an empty plasmid were used as control.

For another experiment, the system named is E. coli SbmA+ cells. In words: Binding of TMOF-FITC to E. coli SbmA+ cells with empty pTAC-MAT2 plasmid. The following applies: 8 × 10^8 cells, 2 h, 37 °C, M9 medium, mean of three. The method, then:
as §1

In experiment [5] the test system is AeaABC-TMOF receptor. Nature of the experiment: Binding of TMOF-FITC to AeaABC-TMOF receptor expressed in E. coli SbmA− cells. Also on record: species or system Aedes aegypti. The settings on record: for Kd: TMOF-FITC 0–0.4 μM, 8 × 10^8 E. coli SbmA− cells expressing receptor, M9 medium pH 7.2, 37 °C, fluorescence, corrected for nonspecific binding (13%), nonlinear regression, n = 5, ± SEM; for Bmax: as for KD, ± SEM; for affinity constant Kassoc: calculated from the binding kinetics. The method, then:
Mid-log phase bacteria harboring TMOF-receptor were harvested, diluted and 0.5 μL (8 × 10^8 cells) were incubated in M9 medium (100 μL) pH 7.2 at 37 °C for 2 h in a shaker incubator in Eppendorf tubes with different concentrations of TMOF-FITC (0–0.4 μM) (specific activity = 25,396 fluorescence units/pmol) in the presence of TMOF (1 μmol) to reduce nonspecific binding of TMOF-FITC to the bacterial surface. After incubation, the cells were centrifuged at 14,000 rpm for 5 min at 4 °C, resuspended in PBS pH 7.2 (100 μL), vortexed, centrifuged, and the washing was repeated three times. After the last wash, the cells OD600nm and fluorescence were read in GloMax multidetector system using a blue filter (excitation at 490 nm and emission at 510–570 nm). The amount of TMOF-FITC that bound the TMOF-receptor was determined from a linear calibration curve after plotting different concentrations of TMOF-FITC against fluorescence units. […] After HPLC purification, the TFA ions were exchanged with phosphate ions. […] The results are expressed as pmol/OD600 so the binding to the receptor is per equal number of E. coli cells. The kinetics of TMOF-FITC binding to its receptor was followed at different concentrations of TMOF-FITC using 5 repetitions per concentration, the data was then fitted by nonlinear regression using GraphPad Prism and the KD, Bmax and the affinity constant Kassoc determined. The binding experiments were repeated 3 independent times.
Statistical analyses were determined using GraphPad Prism using two tailed Student’s t test and nonlinear regression. Results were considered significant when p < 0.05. […] Each experimental point is a mean of 3–5 determinations ± SEM.

The next experiment concerns TMOF gut receptor. The following applies: cited from earlier work. The text has this:
To characterize the TMOF gut receptor, complementary decapeptides were used on Ae. aegypti gut membranes showing that the binding to the gut membrane is pH and temperature dependent. […] The specific TMOF receptor binding sites on female mosquito gut increased after the blood meal and they were visualized by immunochemistry staining. […] Our earlier studies also characterized a low affinity receptor [25] whereas in this study the affinity chromatography and SDS PAGE procedure that we used aimed to purify a high affinity TMOF receptor. It is possible that a second low affi ...

Data on six molecules can be found in paper PMC8301768, “Cloning and Characterization of Aedes aegypti Trypsin Modulating Oostatic Factor (TMOF) Gut Receptor” (Biomolecules, 2021).

On to `O=[N+]([O-])c1ccc(O)c([N+](=O)[O-])c1` [DNP, 2,4-dinirophenol], for which the “effect on transport of AeaTMOF-FITC into E. coli cells (in words)” value (shortened to “effect on transport”) in the experiment on AeaABC-TMOF receptor [1] is recorded as “did not stop the transport”.
Take H-YDPAPPPPPPK(FITC)K-OH [TMOF-FITC]: the nonspecific binding with E. coli SbmA− cells [2] (E. coli SbmA− cells with empty pTAC-MAT-2 plasmid, not expressing the receptor (bacterial cell wall)) stood at 13%. The AeaTMOF-FITC bound with E. coli SbmA− cells [2] (E. coli SbmA− cells, 8 × 10^8 cells, 2 h, 37 °C, M9 medium, mean of three) came to 4 pmol; in the experiment on E. coli SbmA+ cells it was 8.4 pmol. The “fluorescence of cells / import (in words)” value is on record as “imports it into the bacterial cells” in the experiment with AeaABC-TMOF receptor [3] and “highly fluoresce” in the experiment on AeaABC-TMOF receptor [3] (listed as AeaTMOF-FITC). Also, the “fluorescence of cells (in words)” value in the experiment with AeaABC-TMOF receptor [3] (short time incubation (2 h), cells expressing receptor) was “did not fluoresce”; in the experiment on E. coli SbmA− cells [4], “did not fluoresce”; with E. coli SbmA− cells [4] (listed as AeaTMOF-FITC), “barely fluoresce”. For the same molecule, in the experiment with AeaABC-TMOF receptor [5] (2 h, 37 °C, M9 medium, versus E. coli SbmA+ with empty plasmid, p = 0.0034), the “fold more TMOF-FITC bound by receptor-expressing cells than by E. coli SbmA+” value came out at 3.7 fold. In the experiment with AeaABC-TMOF receptor [5] (2 h, 37 °C, M9 medium, versus E. coli SbmA− with empty plasmid, p = 0.0018), the “fold more TMOF-FITC bound by receptor-expressing cells than by E. coli SbmA−” value came to 7.8 fold. In the experiment with AeaABC-TMOF receptor [5] (2 h), this molecule showed a Kd of 114 ± 18 nM. In the experiment on AeaABC-TMOF receptor [5] (per equal number of E. coli cells, n = 5), this molecule had a Bmax of 28.7 ± 1.8 pmol/OD600. For the same molecule, the “affinity constant Kassoc” value in the experiment on AeaABC-TMOF receptor [5] is 8.8e+06 M⁻¹.
With `O=[As]([O-])([O-])O.[Na+].[Na+]` [NaArsenate, sodium arsenate], in the experiment on AeaABC-TMOF receptor [1], the “inhibition of transport of AeaTMOF-FITC into E. coli cells” value is 58% and the “effect on transport” value is “inhibited”.
YDPAPPPPPP [TMOF]: the Bmax is recorded as 0.1 pmol/gut with TMOF gut receptor (gut membrane preparations) and 28.7 ± 1.8 pmol in the experiment on AeaABC-TMOF receptor [5]. For the same molecule, the Kassoc in the experiment on TMOF gut receptor (gut membrane preparations) was 2.2e+06 M⁻¹. In addition, the Kd at TMOF gut receptor (low affinity binding site, gut membranes, complementary decapeptides, read-out: Kd2) was 4430 nM; in the experiment on AeaABC-TMOF receptor [5] (2 h) it was 114 ± 18 nM. For the same molecule, the “affinity constant Kassoc” value with AeaABC-TMOF receptor [5] was 8.8e+06 M⁻¹.
Take `[N-]=[N+]=[N-].[Na+]` [NaAzide, sodium azide]: in the experiment on AeaABC-TMOF receptor [1], the “inhibition of transport of AeaTMOF-FITC into E. coli cells” value is listed as 43% and the “effect on transport” value was “inhibited”.
As for `CC(C)[C@@H]1NC(=O)[C@H](C)OC(=O)[C@@H](C(C)C)NC(=O)[C@@H](C(C)C)OC(=O)[C@H](C(C)C)NC(=O)[C@H](C)OC(=O)[C@@H](C(C)C)NC(=O)[C@@H](C(C)C)OC(=O)[C@H](C(C)C)NC(=O)[C@H](C)OC(=O)[C@@H](C(C)C)NC(=O)[C@@H](C(C)C)OC1=O` [Valinomycin], the “effect on transport” value in the experiment on AeaABC-TMOF receptor [1] is “did not stop the transport”.
